For assay [1], the target named is T1, human MERTK cytoplasmic domain (Homo sapiens, UniProt Q12866).
T1 construct: human MERTK cytoplasmic domain (Carna Biosciences 08-108); purchased Carna Biosciences 08-108
Kind of assay: biochemical. As for the experimental part:
Assay 1a—MERTK HTRF KinEASE-TK Assay
The enzymatic reaction was carried out for 30 min at room temperature. 10 μL TK Antibody-Cryptate/Streptavidin-XL665 (Cisbio 610SAXLG) was then added for 60 min, including EDTA containing detection buffer (Cisbio 62SDBRDF) to stop the reaction.

In assay [2] the target is T2, Ba/F3 Pro B-cell line expressing TEL-human Tyro3 fusion domain (Homo sapiens, UniProt Q06418).
T2 sequence (Q06418 518-790 limits assumed): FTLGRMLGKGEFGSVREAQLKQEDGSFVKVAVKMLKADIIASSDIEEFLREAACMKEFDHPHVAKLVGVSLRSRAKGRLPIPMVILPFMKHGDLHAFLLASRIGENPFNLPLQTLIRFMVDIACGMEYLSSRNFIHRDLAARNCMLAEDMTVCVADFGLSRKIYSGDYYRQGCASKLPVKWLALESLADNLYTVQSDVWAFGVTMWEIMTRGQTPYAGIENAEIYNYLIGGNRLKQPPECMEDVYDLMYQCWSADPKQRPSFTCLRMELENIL
Type of assay: cell-based. The note with it: cell survival, 48 h, CellTiter-Glo. On the technique in general: In ATP-based viability assays light output follows the ATP content of the culture.

The test system of assay [3] is BCR-Ba/F3 control cell line. Kind of assay: Assay 5 Ba/F3 cell survival assay, BCR-none control line. Type of assay: cell-based. The note with it: Mus musculus, BaF3. As for the experimental part: Assay 5—Ba/F3 Cell Survival Assays.
The inhibitory potencies of compounds were assessed in a Ba/F3 cell survival assay, using the Ba/F3 Pro B-cell line, recombinantly expressing a BCR-human AXL kinase domain fusion protein (pACD320/AXL, Advanced Cellular Dynamics Inc), TEL-human MERTK fusion domain (pACD1000/MERTK, Advanced Cellular Dynamics Inc), TEL-human Tyro3 fusion domain (pACD1000/TYRO3, Advanced Cellular Dynamics Inc), or control TEL-none (ACD320, Advanced Cellular Dynamics Inc) BRC-none constructs (ACD1000, Advanced Cellular Dynamics Inc). 10 ng/mL recombinant murine IL3 (R&D, 403-ML-010) was included in the media when propagating negative control TEL-none or BCR-none lines only. Cells were maintained in RMPI 1640 (Corning 15-040-CV) culture media containing 10% heat inactivated semi-synthetic FBS (RMBIO FGR-BBT), 2 mM L-Glutamine (Sigma, G7513), 100 IU/mL Penicillin-[…] Streptomycin (Sigma, P4333), and 500 ng/mL Puromycin (Sigma, P8833). Experiments were performed in 50 μl growth media, including the test compounds of interest, and dispensing 5000 cells/well in logarithmic-phase growth into a 384 well white Optiplate (Perkin Elmer 6007299). […] The final assay DMSO concentration was 0.25%. […]
The plate was then equilibrated for 5 min at room temperature and luminescence read on a BMG Pherastar FSX using the LUM plus optic module. […]

Setting [4] is: 30 uM ATP, read-out: Assay 1a Mer IC50 30 uM ATP.

Read-outs that look alike come from different tables or passages of the source.

T1 sequence (Q12866 527-999): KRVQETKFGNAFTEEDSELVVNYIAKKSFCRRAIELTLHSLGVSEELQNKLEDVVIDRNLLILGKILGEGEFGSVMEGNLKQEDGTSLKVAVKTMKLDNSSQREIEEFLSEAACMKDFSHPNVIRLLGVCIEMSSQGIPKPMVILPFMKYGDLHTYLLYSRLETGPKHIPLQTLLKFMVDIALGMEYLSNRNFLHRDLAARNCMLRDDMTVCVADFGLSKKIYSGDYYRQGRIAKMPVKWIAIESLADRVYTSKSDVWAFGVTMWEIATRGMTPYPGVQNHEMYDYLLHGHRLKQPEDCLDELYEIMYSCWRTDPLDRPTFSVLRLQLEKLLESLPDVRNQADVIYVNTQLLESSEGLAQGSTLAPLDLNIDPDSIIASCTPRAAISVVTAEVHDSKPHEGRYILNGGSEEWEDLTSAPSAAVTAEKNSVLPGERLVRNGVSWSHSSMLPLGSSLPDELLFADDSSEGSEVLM

A word on the IC50: it is the concentration needed to halve the response being measured. Consider `CC(C)n1cc(C(=O)Nc2ccc(Oc3ccnc4cnc(C(=O)NC5CCN(C)CC5)cc34)cn2)c(=O)n(-c2ccc(F)cc2)c1=O` [Example 27.5, 4-[[6-[[3-(4-fluorophenyl)-1-isopropyl-2,4-dioxo-pyrimidine-5-carbonyl]amino]-3-pyridyl]oxy]-N-(1-methyl-4-piperidyl)-1,7-naphthyridine-6-carboxamide], for which the IC50 in assay [1] (setting [4]) stood at 15 nM; in assay [2] it was 107 nM.

`Cc1cc(NC(=O)c2cccn(-c3ccccc3)c2=O)ccc1Oc1ccnc2cnc(N3CCNCC3)cc12` [Example 30, N-[3-methyl-4-[(6-piperazin-1-yl-1,7-naphthyridin-4-yl)oxy]phenyl]-2-oxo-1-phenyl-pyridine-3-carboxamide]: the IC50 was determined as 13 nM in assay [1] and 1330 nM in assay [2].

Regarding `CC(C)n1cc(C(=O)Nc2ccc(Oc3ccnc4cnc(N5CCNCC5)cc34)cc2)c(=O)n(-c2ccccn2)c1=O` [Example 12.3, 1-isopropyl-2,4-dioxo-N-[4-[(6-piperazin-1-yl-1,7-naphthyridin-4-yl)oxy]phenyl]-3-(2-pyridyl)pyrimidine-5-carboxamide], the IC50 in assay [1] (setting [4]) worked out at 56 nM; in assay [2], 1320 nM.

On to `CC(C)n1cc(C(=O)Nc2ccc(Oc3ccnc4cnc(N5CCNCC5)cc34)cc2)c(=O)c(-c2ccc(F)cc2)c1` [Example 13, 5-(4-Fluorophenyl)-1-isopropyl-4-oxo-N-[4-[(6-piperazin-1-yl-1,7-naphthyridin-4-yl)oxy]phenyl]pyridine-3-carboxamide], for which the IC50 in assay [1] (setting [4]) amounted to 1 nM; in assay [2], 212 nM.

For the compound `O=C(Nc1ccc(Oc2ccnc3cnc(N4CCN(C5COC5)CC4)cc23)cn1)c1ccnn(-c2ccc(F)cc2)c1=O` [Example 20, 2-(4-fluorophenyl)-N-[5-[[6-[4-(oxetan-3-yl)piperazin-1-yl]-1,7-naphthyridin-4-yl]oxy]-2-pyridyl]-3-oxo-pyridazine-4-carboxamide], the figures for the IC50 in assay [3], in assay [1] (setting [4]) and in assay [2] were 830 nM, 3 nM and 272 nM, respectively.

For `O=C(Nc1ccc(Oc2ccnc3cnc(N4CCNCC4)cc23)cc1)c1cccn(-c2ccc(F)cc2)c1=O` [Example 12.2, 1-(4-fluorophenyl)-2-oxo-N-[4-[(6-piperazin-1-yl-1,7-naphthyridin-4-yl)oxy]phenyl]pyridine-3-carboxamide], the IC50 in assay [1] (setting [4]) is 20 nM; in assay [2], 238 nM.

With `O=C(Nc1ccc(Oc2ccnc3cnc(N4CCNCC4)cc23)cc1)c1cn(C2CC2)c(=O)n(-c2ccc(F)cc2)c1=O` [Example 36, 1-cyclopropyl-3-(4-fluorophenyl)-2,4-dioxo-N-[4-[(6-piperazin-1-yl-1,7-naphthyridin-4-yl)oxy]phenyl]pyrimidine-5-carboxamide], the IC50 came to 20 nM in assay [1] (setting [4]) and 873 nM in assay [2].

For the compound `CC(C)n1cc(C(=O)Nc2ccc(Oc3ccnc4cnc(C(=O)NC5CCN(C)CC5)cc34)cc2)c(=O)c(-c2ccc(F)cc2)c1` [Example 37.1, 4-[4-[[5-(4-fluorophenyl)-1-isopropyl-4-oxo-pyridine-3-carbonyl]amino]phenoxy]-N-(1-methyl-4-piperidyl)-1,7-naphthyridine-6-carboxamide], the half-maximal inhibitory concentration (IC50) in assay [1] (setting [4]) turned out to be 2 nM; in assay [2], 43 nM.

Regarding `Cn1cc(C(=O)Nc2ccc(Oc3ccnc4cnc(N5CCNCC5)cc34)cc2)c(=O)c(-c2ccc(F)cc2)c1` [Example 13.1, 5-(4-fluorophenyl)-1-methyl-4-oxo-N-[4-[(6-piperazin-1-yl-1,7-naphthyridin-4-yl)oxy]phenyl]pyridine-3-carboxamide], the IC50 in assay [1] (setting [4]) is 4 nM; in assay [2], 179 nM.

On to `CN1CCC(NC(=O)c2cc3c(Oc4ccc(NC(=O)c5cn(C6CC6)c(=O)n(-c6ccc(F)cc6)c5=O)cc4)ccnc3cn2)CC1` [Example 15, 4-[4-[[1-Cyclopropyl-3-(4-fluorophenyl)-2,4-dioxo-pyrimidine-5-carbonyl]amino]phenoxy]-N-(1-methyl-4-piperidyl)-1,7-naphthyridine-6-carboxamide], for which the IC50 was determined as 22 nM in assay [1] (setting [4]) and 673 nM in assay [2].

`CN1CCC(NC(=O)c2cc3c(Oc4ccc(NC(=O)c5cccn(-c6ccccc6)c5=O)cc4F)ccnc3cn2)CC1` [Example 33, 4-[2-fluoro-4-[(2-oxo-1-phenyl-pyridine-3-carbonyl)amino]phenoxy]-N-(1-methyl-4-piperidyl)-1,7-naphthyridine-6-carboxamide]: the IC50 in assay [1] (setting [4]) came to 8 nM; in assay [2], 155 nM.

As for `C[C@H](CO)n1cc(C(=O)Nc2ccc(Oc3ccnc4cnc(C(=O)NC5CCN(C)CC5)cc34)cc2)c(=O)n(-c2ccc(F)cc2)c1=O` [Example 14, 4-[4-[[3-(4-Fluorophenyl)-2,4-dioxo-1-[(1R)-2-hydroxy-1-methyl-ethyl]pyrimidine-5-carbonyl]amino]phenoxy]-N-(1-methyl-4-piperidyl)-1,7-naphthyridine-6-carboxamide], the results for the IC50 in assay [1] (setting [4]) and in assay [2] were 14 nM and 592 nM, respectively.

`CN1CCC(NC(=O)c2cc3c(Oc4ccc(NC(=O)c5cn(C)cc(-c6ccc(F)cc6)c5=O)cc4)ccnc3cn2)CC1` [Example 37, 4-[4-[[5-(4-fluorophenyl)-1-methyl-4-oxo-pyridine-3-carbonyl]amino]phenoxy]-N-(1-methyl-4-piperidyl)-1,7-naphthyridine-6-carboxamide]: the IC50 in assay [1] (setting [4]) was found to be 3 nM; in assay [2], 251 nM.

Consider `CN1CCC(NC(=O)c2cc3c(Nc4ccc(NC(=O)c5cccn(-c6ccccc6)c5=O)cc4)ccnc3cn2)CC1` [Example 3, N-(1-methyl-4-piperidyl)-4-[4-[(2-oxo-1-phenyl-pyridine-3-carbonyl)amino]anilino]-1,7-naphthyridine-6-carboxamide], for which the IC50 in assay [1] (setting [4]) stood at 55 nM; in assay [2], 956 nM.

Take `CC(C)n1cc(C(=O)Nc2ccc(Oc3ccnc4cnc(N5CCNCC5)cc34)cc2)c(=O)n(-c2ccc(F)cn2)c1=O` [Example 12.4, 3-(5-fluoro-2-pyridyl)-1-isopropyl-2,4-dioxo-N-[4-[(6-piperazin-1-yl-1,7-naphthyridin-4-yl)oxy]phenyl]pyrimidine-5-carboxamide]: the IC50 in assay [1] (setting [4]) came to 8 nM; in assay [2], 313 nM.

The values above are taken from patent US20230203029A1 (priority 2020, published 2023).
